Experimental data: US20130123287A1, “CONTROL AGENT FOR SOFT ROT AND CONTROL METHOD FOR THE SAME” (ISHIHARA SANGYO KAISHA, LTD., priority 2010, published 2013)

Assays:
[1] = test system: soft rot of Chinese cabbage; assay: Test for controlling soft rot of Chinese cabbage, Example 1 / Comparative Example 1 (field, cultivar Muso); assay type: in vivo; conditions: 1/1000 dilution, 300 L/10a sprayed three times on stems and leaves, 54 days after start
Protocol: 200 g/l Azoxystrobin (Amistar 20 FLOWABLE [trade name], manufactured by Syngenta Japan K.K.) was adjusted to 250 g ai/10a (0.25 g/m^2, 1250 ml Product/10a) as the amount of the active ingredient and to 150 L/10a as the volume of diluent water.
100 g/l Cyazofamid (RANMAN FLOWABLE [trade name], manufactured by Ishihara Sangyo Kaisha, Ltd.) was adjusted to 250 g ai/10a (0.25 g/m^2, 2500 ml Product/10a) as the amount of the active ingredient and to 150 L/10a as the volume of diluent water.
177 g/l Amisulbrom (LEIMAY FLOWABLE [trade name], manufactured by Nissan Chemical Industries, Ltd.) was adjusted individually to 250 g ai/10a (0.25 g/m^2, 1412 ml Product/10a) as the amount of the active ingredient and to 150 L/10a as the volume of diluent water.
After spreading an agricultural mulch-sheet and opening planting holes (diameter of about 9 cm) for permanent planting through the mulch-sheet, the spray solutions prepared as described above were sprayed onto the planting holes such that the amount of treated active ingredient of each spray solution was 0.25 g/m^2 (150 L per 10a), followed by air-drying; subsequently, seedlings of Chinese cabbage (cultivar: Muso) grown for 4 weeks in cell mold trays (128 holes/nursery box) were planted such that 30 seedlings were planted in each test lot having an area of 6 m^2 with two replications.
Preparation was performed by diluting streptomycin (Mycin 20 wettable powder solution [under the trade name] manufactured by Hokko Chemical Industry Co., Ltd.) with water to 1/1000.
In a field spread with the agricultural mulch-sheet, Chinese cabbage seedlings (cultivar: Muso) grown by the same method as in Example 1 were planted by the same method as in Example 1, for spraying the spray solution of streptomycin prepared above in (1) (at each spray volume of 300 L/10a) three times (13 days, 20 days and 27 days after the planting of the seedlings) on the stems and leaves.
54 days after the start of the tests, all the plants in each lot were examined about the severity level of the disease; according to the following equations, the ratio of the plants with the onset of the disease, the frequency of the disease, and the disease control value were calculated to determine and rank the effects at A to D levels. Because soft rot is a disease with damages hardly controlled, herein, even a chemical at the level C determined by the tests of the effects can practically be used.
Ratio of the plants with the onset of the disease=(Number of plants with the onset of the disease/number of plants examined)*100
Frequency of the disease=[sigma(number of plants with the onset of the disease at each severity level*index of the onset of the disease)/(plants examined*4)]*100 […]

[2] = test system: bacteria causing the soft rot (Erwinia carotovora); assay: Inhibition test of growth of bacteria causing soft rot, Reference Test Example 1; assay type: cell-based; conditions: for formed colonies (growth state), grade: PSA medium, 25 degrees Celsius, 4 days
Protocol: (§1) An inhibition test of the growth of bacteria causing the soft rot was done, when a control agent was directly applied to the bacteria causing the soft rot. A given volume of each pesticide of cyazofamid (RANMAN 400SC [trade name] manufactured by Ishihara Sangyo Kaisha, Ltd.), amisulbrom (LEIMAY FLOWABLE [trade name], manufactured by Nissan Chemical Industries, Ltd.) and streptomycin (Mycin Wettable powder [trade name] manufactured by Hokko Chemical Industry Co., Ltd.) was added together with a suspension of the bacteria causing the soft rot (Erwinia carotovora) to a preliminarily dissolved PSA culture medium (55 degrees Celsius) for subsequent thorough agitation, which was then spread on a plate for culturing at 25 degrees Celsius for 4 days, to examine the growth state. Subsequently, the formed colonies were examined according to the following three grades. • +: at the same level as the level of non-treated lot.
(§2) Plus or minus: apparently less than the colonies of the non-treated lot. • −: almost no colonies observed.

[3] = test system: bacteria causing the soft rot (Erwinia carotovora); assay: Inhibition test of growth of bacteria causing soft rot, Reference Test Example 6; assay type: cell-based; conditions: for formed colonies (growth state), grade: PSA medium, 27 degrees Celsius, 3 days
Excerpt: as §1, with “fludioxonil (Seibia FL” for “cyazofamid (RANMAN 400SC”, “Syngenta Japan K.K.), iminoctadine albesilate salt (Bellkute WP” for “Ishihara Sangyo Kaisha, Ltd.), amisulbrom (LEIMAY FLOWABLE”, “Nippon Soda Co., Ltd.), iprodione (Rovral WP [trade name] manufactured by Bayer Crop Science Co., Ltd.),” for “Nissan Chemical Industries, Ltd.)”, “27” for “25”, “3” for “4”
as §2

[4] = test system: bacteria causing the soft rot (Erwinia carotovora); assay: Inhibition test of growth of bacteria causing soft rot, Reference Test Example 4; assay type: cell-based; conditions: for formed colonies (growth state), grade: PSA medium, 27 degrees Celsius, 2 days
Excerpt: An inhibition test of the growth of bacteria causing the soft rot was done, when a control agent was directly applied to the bacteria causing the soft rot. A given volume of each pesticide of kresoxim-methyl (STROBY DF [trade name] manufactured by BASF), thiophanate methyl (Topsin M WP [trade name], manufactured by Nippon Soda Co., Ltd), boscalid (Cantus DF [trade name] manufactured by BASF), procymidone (Sumilex WP [trade name] manufactured by Sumitomo Chemical Agro Co., Ltd.) and streptomycin (Mycin Wettable powder [trade name] manufactured by Hokko Chemical Industry Co., Ltd.) was added together with a suspension of the bacteria causing the soft rot (Erwinia carotovora) to a preliminarily dissolved PSA culture medium (55 degrees Celsius) for subsequent thorough agitation, which was then spread on a plate for culturing at 27 degrees Celsius for 2 days, to examine the growth state. Subsequently, the formed colonies were examined according to the following three grades. • +: at the same level as the level of non-treated lot. Plus or minus: apparently less than the colonies of the non-treated lot. • −: almost no colonies observed.

[5] = active ingredient concentration of 1 ppm

[H]/N=C(/N)N[C@H]1[C@H](O)[C@@H](O)[C@H](O[C@@H]2O[C@@H](C)[C@](O)(C=O)[C@H]2O[C@@H]2O[C@@H](CO)[C@H](O)[C@@H](O)[C@@H]2NC)[C@@H](N/C(N)=N\[H])[C@@H]1O [Streptomycin]
Determination of effect [1]: D (D: Poorly effective (20 or smaller disease control value)) | formed colonies (growth state), grade ([2]; 1 ppm active ingredient): −, − | formed colonies (growth state), grade ([2]; 10 ppm active ingredient): −, − | direct antibacterial activity against Erwinia carotovora (in words) [2, 5]: exerted a direct antibacterial activity | formed colonies (growth state), grade ([3]; 1 ppm active ingredient): +, + | formed colonies (growth state), grade ([3]; 10 ppm active ingredient): −, ± | direct antibacterial activity against Erwinia carotovora (in words) ([3]; active ingredient concentration of 10 ppm): exerted a direct antibacterial activity | formed colonies (growth state), grade ([4]; 1 ppm active ingredient): −, − | formed colonies (growth state), grade ([4]; 10 ppm active ingredient): −, − | direct antibacterial activity against Erwinia carotovora (in words) [4, 5]: exerted a direct antibacterial activity
